According to patent US20090285888A1, “DERIVATIVES OF DIHYDROXYPHENYLALANINE” (priority 2006, published 2009):

Experiments:
blood plasma of rats = test: Concentration of dopamine, its metabolites, 5-HT and 5-HIAA in the blood plasma of benserazide-pretreated rats; assay type: in vivo, rat; settings: for 3-MT concentration in blood plasma (MV) / 5-HIAA concentration in blood plasma (MV) / 5-HT concentration in blood plasma (MV) / Dopac concentration in blood plasma (MV) / Dopamine concentration in blood plasma (MV) / HVA concentration in blood plasma (MV): 30 min after benserazide, blood 90 min later; for Formation of dopamine in the blood plasma (in words): low and higher doses
Description: (§1) The rats were pretreated with benserazide, an inhibitor of the aromatic amino acid decarboxylase, in order to reduce the degradation of the test compounds in the blood and to thus provide sufficient concentration of dopamine and α-lipoic acid in the brain. After 30 minutes, L-DOPA (standard therapy for Parkinson's disease) or compound 1, compound 2, compound 3 in doses equivalent to L-DOPA were injected into the peritoneum (intraperitoneal, ip). After a further 90 minutes, blood and brain tissue (striatum) were extracted. A lower dose (25 mg/kg body weight) and a higher dose (50 mg/kg body weight) of L-DOPA were selected.

[1] = system: nucleus accumbens of a freely moving rat; test: In vivo microdialysis of dopamine release in the nucleus accumbens of the freely moving rat; settings: for Dose dependence of dopamine release in nucleus accumbens (in words): 25 and 50 mg/kg L-DOPA or equimolar doses, FIGS. 1-4; for Time-course of dopamine concentration in nucleus accumbens microdialysate (in words): ip, 30 min after benserazide, L-DOPA: higher dose (FIG. 1), compound 1: FIGS. 3 and 4
Description: The arrow indicates the moment of injection (ip: intraperitoneal) of L-DOPA (25 mg/kg body weight) 30 minutes after the administration of benserazide (10 mg/kg body weight, ip).
The arrow indicates the moment of injection (ip: intraperitoneal) of L-DOPA (50 mg/kg body weight) 30 minutes after the administration of benserazide (10 mg/kg body weight, ip, in 0.9% NaCl).
The arrow indicates the moment of injection (ip: intraperitoneal) of diacetyl-DOPA-ethylene glycol α-lipoic acid (equimolar dose to 25 mg/kg body weight L-DOPA) 30 minutes after the administration of benserazide (10 mg/kg body weight, ip in 0.9% NaCl).
The arrow indicates the moment of injection (ip: intraperitoneal) of diacetyl-DOPA-ethylene glycol α-lipoic acid (equimolar dose to 50 mg/kg body weight L-DOPA) 30 minutes after the administration of benserazide (10 mg/kg body weight, ip).
Furthermore, by the method of in vivo micro dialysis of the conscious and freely moving rat, experiments were carried out to test whether the production and release of dopamine in the nucleus accumbens, a part of the brain with dense innervation of dopamine-containing nerve cells, is increased upon administration of L-DOPA or compound 1. The advantage of said method consists in the fact that the time-course of the release of the messenger dopamine from the active nerve cells can be observed in the conscious and freely moving rat. […] Said strong increase and the high concentrations are not desired since several degradation products of dopamine and the oxygen radicals formed during the degradation of dopamine have damaging effects on nerve cells.

[2] = system: brain (striatum) of the rat; test: Concentration of dopamine, its metabolites, 5-HT and 5-HIAA in the striatum of benserazide-pretreated rats; assay type: in vivo; settings: for 3-MT concentration in striatum (MV) / 5-HIAA concentration in striatum (MV) / 5-HT concentration in striatum (MV) / Dopac concentration in striatum (MV) / Dopamine concentration in striatum (MV) / HVA concentration in striatum (MV): 30 min after benserazide, tissue 90 min later
Description: as §1

[3] = 25 mg/kg L-DOPA or L-DOPA eq. ip
[4] = 50 mg/kg L-DOPA or L-DOPA eq. ip
[5] = higher doses (50 mg/kg L-DOPA eq.)
[6] = low doses (25 mg/kg L-DOPA eq.)

SMILES | 3-MT concentration in blood plasma (MV) (blood plasma of rats; [3]) [pg per ml plasma] | 5-HIAA concentration in blood plasma (MV) (blood plasma of rats; [3]) [pg per ml plasma] | 5-HT concentration in blood plasma (MV) (blood plasma of rats; [3]) [pg per ml plasma] | Dopac concentration in blood plasma (MV) (blood plasma of rats; [3]) [pg per ml plasma] | Dopamine concentration in blood plasma (MV) (blood plasma of rats; [3]) [pg per ml plasma] | 3-MT concentration in striatum (MV) [2, 3] [pg per mg striatum] | 5-HIAA concentration in striatum (MV) [2, 3] [pg per mg striatum] | 5-HT concentration in striatum (MV) [2, 3] [pg per mg striatum] | Dopac concentration in striatum (MV) [2, 3] [pg per mg striatum] | Dopamine concentration in striatum (MV) [2, 3] [pg per mg striatum] | HVA concentration in striatum (MV) [2, 3] [pg per mg striatum] | 3-MT concentration in striatum (MV) [2, 4] [pg per mg striatum] | 5-HIAA concentration in striatum (MV) [2, 4] [pg per mg striatum] | 5-HT concentration in striatum (MV) [2, 4] [pg per mg striatum] | Dopac concentration in striatum (MV) [2, 4] [pg per mg striatum] | Dopamine concentration in striatum (MV) [2, 4] [pg per mg striatum] | HVA concentration in striatum (MV) [2, 4] [pg per mg striatum] | Effect on the metabolites DOPAC and HVA in striatum (in words) [2, 5] | Effect on the concentrations of dopamine in striatum (in words) [2, 6] | Effect on the metabolites DOPAC and HVA in striatum (in words) [2, 6] | other results
CC(=O)Oc1ccc(C[C@H](N)C(=O)OCCOC(=O)CCCCC2CCSS2)cc1OC(C)=O (stereo partly drawn) [compound 1, O,O′-diacetyl-L-DOPA-ethylene glycol lipoic acid ester] | 8563 | 13852 | 8894 | 57257 | 29782 | 308 | 706 | 355 | 4532 | 11244 | 2567 | 194 | 764 | 411 | 9549 | 11695 | 4314 | increased | do not lead to an increase | increased | HVA concentration in blood plasma (MV) (blood plasma of rats; [3]): 16836 pg per ml plasma; 3-MT concentration in blood plasma (MV) (blood plasma of rats; [4]): 6288 pg per ml plasma; 5-HIAA concentration in blood plasma (MV) (blood plasma of rats; [4]): 15367 pg per ml plasma; 5-HT concentration in blood plasma (MV) (blood plasma of rats; [4]): 12094 pg per ml plasma; Dopac concentration in blood plasma (MV) (blood plasma of rats; [4]): 58266 pg per ml plasma; Dopamine concentration in blood plasma (MV) (blood plasma of rats; [4]): 22129 pg per ml plasma; HVA concentration in blood plasma (MV) (blood plasma of rats; [4]): 71658 pg per ml plasma; Formation of dopamine in the blood plasma (in words) (blood plasma of rats): Dopamine is also formed; Dose dependence of dopamine release in nucleus accumbens (in words) [1]: released in a dose-dependent manner; Time-course of dopamine concentration in nucleus accumbens microdialysate (in words) [1]: two-peak-maximum and a less steep increase as well as a longer lasting effect
CC(=O)Oc1ccc(CC(NC(=O)CCCCC2CCSS2)C(=O)O)cc1OC(C)=O [compound 2, O,O′-diacetyl-L-DOPA-(R,S)-lipoic acid amide] | 11480 | 8374 | 7966 | 52963 | 23006 | 267 | 780 | 438 | 6127 | 10512 | 1577 | 176 | 782 | 448 | 5697 | 11485 | 1742 | increased | do not lead to an increase | increased | HVA concentration in blood plasma (MV) (blood plasma of rats; [3]): 44304 pg per ml plasma; 3-MT concentration in blood plasma (MV) (blood plasma of rats; [4]): 6121 pg per ml plasma; 5-HIAA concentration in blood plasma (MV) (blood plasma of rats; [4]): 12656 pg per ml plasma; 5-HT concentration in blood plasma (MV) (blood plasma of rats; [4]): 7494 pg per ml plasma; Dopac concentration in blood plasma (MV) (blood plasma of rats; [4]): 57729 pg per ml plasma; Dopamine concentration in blood plasma (MV) (blood plasma of rats; [4]): 21919 pg per ml plasma; HVA concentration in blood plasma (MV) (blood plasma of rats; [4]): 42184 pg per ml plasma; Formation of dopamine in the blood plasma (in words) (blood plasma of rats): Dopamine is also formed; Effect on the concentrations of dopamine in striatum (in words) [2, 5]: led to an increase; Effect on the concentration of 5-HT in striatum (in words) ([2]; rat, in vivo): increased the concentration of 5-HT
O=C(CCCCC1CCSS1)NC(Cc1ccc(O)c(O)c1)C(=O)O [compound 3, L-DOPA-(D,L)-lipoic acid amide] |  |  |  |  |  | 292 | 620 | 340 | 1508 | 10539 | 1042 | 237 | 490 | 278 | 1788 | 11488 | 1244 | increased | do not lead to an increase | only HVA | Effect on the concentrations of dopamine in striatum (in words) [2, 5]: led to an increase
NC(Cc1ccc(O)c(O)c1)C(=O)O [L-DOPA, 2-amino-3-(3,4-dihydroxyphenyl)-propionic acid, reference compound] | 11897 | 18687 | 3089 | 20833 | 20437 | 312 | 711 | 365 | 3017 | 10108 | 1752 | 259 | 593 | 366 | 9159 | 11844 | 4550 | increased | do not lead to an increase | increased | HVA concentration in blood plasma (MV) (blood plasma of rats; [3]): 9592 pg per ml plasma; 3-MT concentration in blood plasma (MV) (blood plasma of rats; [4]): 14711 pg per ml plasma; 5-HIAA concentration in blood plasma (MV) (blood plasma of rats; [4]): 11426 pg per ml plasma; 5-HT concentration in blood plasma (MV) (blood plasma of rats; [4]): 15108 pg per ml plasma; Dopac concentration in blood plasma (MV) (blood plasma of rats; [4]): 38697 pg per ml plasma; Dopamine concentration in blood plasma (MV) (blood plasma of rats; [4]): 31519 pg per ml plasma; HVA concentration in blood plasma (MV) (blood plasma of rats; [4]): 69329 pg per ml plasma; Formation of dopamine in the blood plasma (in words) (blood plasma of rats): dopamine is formed; Dose dependence of dopamine release in nucleus accumbens (in words) [1]: released in a dose-dependent manner; Time-course of dopamine concentration in nucleus accumbens microdialysate (in words) [1]: strongly increases; Effect on the concentrations of dopamine in striatum (in words) [2, 5]: led to an increase
